Test results as given in US11518805B2, “Binding inhibitor between TCTP dimer type IgE-dependent histamine releasing factor and receptor thereof, and use thereof” (EWHA UNIVERSITY—INDUSTRY COLLABORATION FOUNDATION, priority 2014, dated 2022).
“Also recorded” adds a separate entry of the source.

Legend:
Del-N11dTCTP = molecular target: T1, Del-N11dTCTP (Rattus norvegicus, UniProt P63029); assay: Inhibition of Del-N11dTCTP-induced IL-8 secretion by domain peptides in BEAS-2B cells; assay type: cell-based; conditions: Del-N11dTCTP 70 nM, peptide molar ratios 0~1, 24 hours, ELISA
T1 construct: made in house
T1 sequence (P63029 11-172 limits assumed): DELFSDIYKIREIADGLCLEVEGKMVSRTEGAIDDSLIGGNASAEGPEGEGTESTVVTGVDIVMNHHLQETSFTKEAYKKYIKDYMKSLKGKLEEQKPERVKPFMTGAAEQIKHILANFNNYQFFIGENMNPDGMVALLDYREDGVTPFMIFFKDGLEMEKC
Procedure: To investigate inhibitory effect of FL domain, Helix 2 domain, and Helix 3 domain on Del-N11dTCTP, the inventors synthesized FL domain (Ac-[…]-NH2) (SEQ. ID. NO: 1), Helix 2 domain (Ac-[…]-NH2) (SEQ. ID. NO: 11), and Helix 3 domain (Ac-[…]-NH2) (SEQ. ID. NO: 22) by using the synthetic peptides prepared with NH2-terminal acetylation and COOH-terminal amidation, followed by purification.
Particularly, BEAS-2B cells were treated with Del-N11dTCTP (70 nM) by the same manner as described in Experimental Example 1. At this time, the synthesized FL domain, Helix 2 domain, and Helix 3 domain were treated to the cells at different molar ratios (0˜1), followed by reaction for 30 minutes. Then, Del-N11dTCTP was added thereto. 24 hours later, the supernatant was obtained and the released IL-8 was quantified by ELISA.

[1] = test system: asthma and rhinitis animal models induced with ovalbumin; assay: FL and H2 domain peptides in ovalbumin-induced asthma and rhinitis animal models; assay type: in vivo, BALB/c female mice
[2] = test system: asthma and rhinitis animal models induced with ovalbumin; assay: as above; assay type: in vivo, BALB/c female mice; conditions: for inflammatory cells in bronchoalveolar lavage fluid (total cell number, leukocyte number) / level of IL-5 in bronchoalveolar lavage fluid: 20 mg/kg intraperitoneal, vs positive control (PBS)
Procedure: Particularly, 5 week old specific pathogen free BALB/c female mice (weight: approximately 20 g) were purchased from Orientbio Inc. (Seoul, Korea), followed by stabilization in an animal laboratory for 1 week. The mice were administered with 200 ? of PBS containing 1.3 mg of aluminum hydroxide (Sigma A8222) and 100 μg of ovalbumin (Sigma A5503) via intraperitoneal injection twice at a week interval, followed by sensitization. Then, 20 ? of PBS containing 200 μg of ovalbumin dissolved therein was administered via intranasal instillation on day 14, day 16, and day 18 to induce immune response. PBS was administered for the positive control and FL and H2 domains and the antisera or antibodies thereof were administered via intraperitoneal injection 10 minutes before antigen administration. On day 15, day 17, and day 19, intraperitoneal administration was performed without antigen administration. On day 19, the animals were sacrificed 2 hours after the administration (FIG. 16). 50 μg of anti-C terminus IgG was administered via intranasal instillation or intraperitoneal injection 30 minutes before the antigen administration on day 14, day 16, and day 18. 24 hours after the last administration, the animals were sacrificed (FIG. 26). The asthma and rhinitis models constructed in Example 7 were treated with FL and H2 domain at the concentration of 20 mg/kg in order to investigate whether or not those two HRF receptor binding domains could suppress pathophysiological lesion of asthma and rhinitis. Particularly, after cardiac blood collection in the animal model constructed in Example 7, bronchoalveolar lavage was performed. The airway was opened and a 20-gauge intravascular tube catheter was inserted through the opened airway, through which 0.8 ml of PBS containing 2% FBS was slowly injected three times and then recovered. The recovery rate was at least 80% and the recovered washing solution was centrifuged at 4° C. for 15 minutes at 1,000×g. The obtained supernatant was used for the detection of cytokine such as IL-5 or for the detection of TCTP protein. In the meantime, the precipitate was resuspended in 100 ? of PBS containing 2% FBS. The number of the inflammatory cells infiltrated in the washing solution was counted by using HEMAVET 950FS (Drew Scientific). Particularly, upon completion of the experiment in Example 7, the mixture of zoletil (250 mg/kg) and rompun (50 mg/kg) was administered to the mouse via intraperitoneal injection to sacrifice the animal. 0.7˜0.8 mL of blood was collected from the heart and placed in a heparinized tube. The blood sample stood at room temperature for 30 minutes˜1 hour, followed by centrifugation at 1,000×g for 15 minutes to obtain plasma. The level of ovalbumin-specific IgE in the plasma was measured by ELISA. 100 μg of ovalbumin was dissolved in 0.05 M carbonate buffer (pH 9.6), which was distributed in a 96-well ELISA plate, followed by coating at 4° C. for overnight. Non-specific reaction was blocked by reacting the plate with TBS containing 1% BSA at room temperature for 30 minutes. The plasma sample was diluted (1:100), followed by reaction at room temperature for 1 hour, which was then washed with TBS containing 0.1% Tween-20. The […] anti-mouse IgE (SouthernBiotech) was diluted (1:8000), followed by reaction at room temperature for 1 hour. Then, the mixture was washed. TMB was treated thereto at room temperature. 10 minutes later, the reaction was terminated by adding 0.2 M H2SO4. Then, OD450 was measured with an ELISA reader. Particularly, bronchoalveolar lavage fluid was collected from the asthma and rhinitis animal models constructed in Example 7. The chest was dissected and the lung was extracted, which was washed with 4° C. PBS. The lung was cut to the appropriate size. Some of the lung pieces were fixed in PBS containing 4% paraformaldehyde (PFA) at room temperature via o/n fixation. […]

Substance	inhibition of IL-8 secretion induced by Del-N11dTCTP (Del-N11dTCTP)	IL-5 secretion in bronchoalveolar lavage fluid ([1]; 1 mg/kg)	inflammatory cells infiltrated in bronchoalveolar lavage fluid, dose dependence ([1]; 1 mg/kg and 20 mg/kg)	level of ovalbumin-specific IgE in plasma, dose dependence ([1]; various concentrations (1 and 20 mg/kg))	inflammatory cells in bronchoalveolar lavage fluid (total cell number, leukocyte number) [2]	level of IL-5 in bronchoalveolar lavage fluid [2]	level of ovalbumin-specific IgE in plasma ([2]; 20 mg/kg, ELISA, vs positive control)	number of total cells and level of lymphocytes in bronchoalveolar lavage fluid ([2]; 20 mg/kg, p<0.01)	level of TCTP dimer (approximately 45 kDa) in bronchoalveolar lavage fluid, immunoblotting ([2]; vs positive control)	phospho-IκBα in lung tissue, immunoblotting ([2]; vs positive control)
Ac-SRTEGAIDDSLIGGNASAEGPEGEGTESTVVT-NH2 [FL domain, ID; NO: 1]	inhibited IL-8 secretion better than Helix 3 domain; also recorded: inhibited more strongly	could inhibit IL-5 secretion	reduced FL domain dose-dependently	reduced by the treatment of FL domain dose-dependently	significantly lower	reduced	reduced	significantly reduced	reduced	decreased
Ac-TKEAYKKYIKDYMKSLKGKLEEQKP-NH2 [Helix 2 domain, ID; NO: 11]	inhibited IL-8 secretion better than Helix 3 domain; also recorded: inhibited more strongly	–	–	–	decreased	reduced	–	–	–	–
